Results: US20250145665A1, “MACROCYCLIC PEPTIDES USEFUL AS MODULATORS OF TNF ALPHA” (Bristol-Myers Squibb Company, priority 2023, published 2025)
Like-named read-outs stand apart in the source and are kept apart here. Starred links: 1 amine or outer side, 2 acyl side, 3 side chain; linkers in the order of their positions; H or OH if unused. Positions of bridges follow the written chain, without caps; N, C: chain ends. Non-standard residues stand in square brackets, D forms with d. Residues, ends and D or L forms follow the SMILES beside them. ξ: configuration not given here. *: point of attachment. Bip(4'-NHCO-C6H4-3-CH2COOH) = N[C@@H](Cc1ccc(-c2ccc(NC(=O)c3cccc(CC(=O)O)c3)cc2)cc1)C(=O)O; X2 = O=C(O)c1ccc(CNC(=O)c2cccc(-c3ccc(C[C@H](N[*:1])C(=O)[*:2])cc3)c2)cc1; dArg(Nω-CH2C6H4-3-CH2Gua) = N=C(N)NCc1cccc(CNC(=N)NCCC[C@@H](N)C(=O)O)c1; Bip(4'-NHBz) = N[C@@H](Cc1ccc(-c2ccc(NC(=O)c3ccccc3)cc2)cc1)C(=O)O; Bip(4'-NH) = O=C([C@H](Cc1ccc(-c2ccc(N[*:3])cc2)cc1)N[*:1])[*:2]; Bip(4'-CONHMe) = CNC(=O)c1ccc(-c2ccc(C[C@H](N)C(=O)O)cc2)cc1; Indazole3carbonyl(1-CH2COOH) = O=C(O)Cn1nc(C(=O)*)c2ccccc21; Bip(4'-COOH) = N[C@@H](Cc1ccc(-c2ccc(C(=O)O)cc2)cc1)C(=O)O; Bip(4'-NHAc) = CC(=O)Nc1ccc(-c2ccc(C[C@H](N)C(=O)O)cc2)cc1; X8 = N=C(NCCC[C@@H](N[*:1])C(=O)[*:2])NCCc1ccc(CN)cc1; Ala(morpholin-4-yl) = N[C@@H](CN1CCOCC1)C(=O)O; Bip = N[C@@H](Cc1ccc(-c2ccccc2)cc1)C(=O)O; Ala(4-THP) = N[C@@H](CC1CCOCC1)C(=O)O; Tic = O=C(O)[C@@H]1Cc2ccccc2CN1; Cha = N[C@@H](CC1CCCCC1)C(=O)O; Chg = N[C@H](C(=O)O)C1CCCCC1; Tle = CC(C)(C)[C@H](N)C(=O)O; Aze = O=C(O)[C@@H]1CCN1; ξV = CC(C)C(N)C(=O)O; Sar = CNCC(=O)O

Biological target: TNFα (Homo sapiens, UniProt P01375)
Assay: TNF-Induced HEK-Blue Assay
Assay type: cell-based
[1] = HEK-Blue-CD40L cells, NF-kB-driven secreted alkaline phosphatase reporter, TNFα 0.5 ng/ml, 18 h, read-out: TNF induced HEK-Blue assay IC50 value

Sequence of TNFα (P01375 77-233 limits assumed): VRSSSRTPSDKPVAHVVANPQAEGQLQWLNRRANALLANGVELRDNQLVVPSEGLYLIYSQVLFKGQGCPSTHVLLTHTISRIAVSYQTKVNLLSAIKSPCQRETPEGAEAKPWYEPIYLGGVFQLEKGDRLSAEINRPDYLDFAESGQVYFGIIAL

IC50 [1]	Structure (SMILES)	IC50
0.05 to 0.2 µM	CC(C)C[C@@H]1NC(=O)[C@H](CCCNC(=N)N)NC(=O)[C@H](C(C)C)NC(=O)[C@@H]2CCCN2C(=O)[C@H](C(C)C)NC(=O)[C@@H](CCCNC(=N)NCc2cccc(CNC(=N)N)c2)NC(=O)[C@H](CC(=O)O)NC(=O)[C@@H]2CCCN2C(=O)CN(C)C(=O)[C@H](Cc2ccc(-c3ccc(NC(=O)c4cccc(CC(=O)O)c4)cc3)cc2)NC(=O)[C@H](Cc2ccc(-c3ccccc3)cc2)NC(=O)[C@H](CN2CCOCC2)NC(=O)CSC[C@@H](C(=O)NCC(N)=O)NC1=O [Example 570] ({CH2CO}-[Ala(morpholin-4-yl)][Bip][Bip(4'-NHCO-C6H4-3-CH2COOH)][Sar]PD[dArg(Nω-CH2C6H4-3-CH2Gua)]VPVRLCG-NH2; thioether N-13)	–
0.2 to 2 µM	CC(C)C[C@@H]1NC(=O)[C@H](CCCNC(=N)N)NC(=O)C(C(C)C)NC(=O)[C@@H]2CCCN2C(=O)[C@H](C(C)C)NC(=O)[C@@H](CCCNC(=N)N)NC(=O)[C@H](CC(=O)O)NC(=O)[C@@H]2CCCN2C(=O)CN(C)C(=O)[C@H](Cc2ccc(-c3cccc(C(=O)NCc4ccc(C(=O)O)cc4)c3)cc2)NC(=O)[C@H](Cc2ccc(-c3ccccc3)cc2)NC(=O)[C@H](CC2CCOCC2)NC(=O)CSC[C@@H](C(=O)NCC(N)=O)NC1=O (some centres unmarked) [Example 303] ({CH2CO}-[Ala(4-THP)][Bip][X2][Sar]PD[dR]VP[ξV]RLCG-NH2; thioether N-13)	–
0.05 to 0.2 µM	CC(C)C[C@@H]1NC(=O)[C@H](CCCNC(=N)N)NC(=O)[C@H](C(C)C)NC(=O)[C@@H]2Cc3ccccc3CN2C(=O)[C@H](C(C)C)NC(=O)[C@H](CCCNC(=N)N)NC(=O)[C@H](CC(=O)O)NC(=O)[C@@H]2CCCN2C(=O)CN(C)C(=O)[C@H](Cc2ccc(-c3ccccc3)cc2)NC(=O)[C@H](Cc2ccc(-c3ccccc3)cc2)NC(=O)[C@H](CN2CCOCC2)NC(=O)CSC[C@@H](C(=O)NCC(N)=O)NC1=O [Example 71] ({CH2CO}-[Ala(morpholin-4-yl)][Bip][Bip][Sar]PDRV[Tic]VRLCG-NH2; thioether N-13)	–
–	CNC(=O)c1ccc(-c2ccc(C[C@@H]3NC(=O)[C@H](CN4CCOCC4)NC(=O)CSC[C@@H](C(=O)NCC(N)=O)NC(=O)[C@H](CC(C)C)NC(=O)[C@H](CCCNC(=N)N)NC(=O)[C@H](C(C)C)NC(=O)[C@@H]4CCCN4C(=O)[C@H](C(C)C)NC(=O)[C@@H](CCCNC(=N)NCCc4ccc(CN)cc4)NC(=O)[C@H](CC(=O)O)NC(=O)[C@@H]4CCCN4C(=O)CN(C)C(=O)[C@H](Cc4ccc(-c5ccc(NC(=O)c6nn(CC(=O)O)c7ccccc67)cc5)cc4)NC3=O)cc2)cc1 [Example 431] ({CH2CO}-[Ala(morpholin-4-yl)][Bip(4'-CONHMe)][Bip(4'-NH)](Indazole3carbonyl(1-CH2COOH))[Sar]PD[X8]VPVRLCG-NH2; thioether N-13)	0.05 to 0.2 µM
< 0.05 µM	CC[C@H](C)[C@@H]1NC(=O)[C@@H]2CCCN2C(=O)[C@H]([C@@H](C)CC)NC(=O)[C@@H](CCCNC(=N)N)NC(=O)[C@H](CC(=O)O)NC(=O)[C@H](Cc2ccccc2)NC(=O)CN(C)C(=O)[C@H](Cc2ccc(-c3ccc(NC(C)=O)cc3)cc2)NC(=O)[C@H](Cc2ccc(-c3ccc(C(=O)NC)cc3)cc2)NC(=O)[C@H](C(C)(C)C)NC(=O)CSC[C@@H](C(=O)NCC(N)=O)NC(=O)[C@H](CC(C)C)NC(=O)[C@H](Cc2cnc[nH]2)NC1=O [Example 385] ({CH2CO}-[Tle][Bip(4'-CONHMe)][Bip(4'-NHAc)][Sar]FD[dR]IPIHLCG-NH2; thioether N-13)	–
0.05 to 0.2 µM	CC(=O)Nc1ccc(-c2ccc(C[C@@H]3NC(=O)[C@H](Cc4ccc(-c5ccc(C(=O)O)cc5)cc4)NC(=O)[C@H](CC4CCCCC4)NC(=O)CSC[C@@H](C(=O)NCC(N)=O)NC(=O)[C@H](CC(C)C)NC(=O)[C@H](Cc4cnc[nH]4)NC(=O)[C@H](C4CCCCC4)NC(=O)[C@@H]4CCN4C(=O)[C@H](C(C)C)NC(=O)[C@@H](CCCNC(=N)N)NC(=O)[C@H](CC(=O)O)NC(=O)[C@H](Cc4cnc[nH]4)NC(=O)CN(C)C3=O)cc2)cc1 [Example 272] ({CH2CO}-[Cha][Bip(4'-COOH)][Bip(4'-NHAc)][Sar]HD[dR]V[Aze][Chg]HLCG-NH2; thioether N-13)	–
< 0.05 µM	CC[C@H](C)[C@@H]1NC(=O)[C@@H]2CCCN2C(=O)[C@H]([C@@H](C)CC)NC(=O)[C@@H](CCCNC(=N)N)NC(=O)[C@H](CC(=O)O)NC(=O)[C@H](Cc2cnc[nH]2)NC(=O)CN(C)C(=O)[C@H](Cc2ccc(-c3ccc(NC(C)=O)cc3)cc2)NC(=O)[C@H](Cc2ccc(-c3ccc(C(=O)O)cc3)cc2)NC(=O)[C@H](CN2CCOCC2)NC(=O)CSC[C@@H](C(=O)NCC(N)=O)NC(=O)[C@H](CC(C)C)NC(=O)[C@H](Cc2cnc[nH]2)NC1=O [Example 292] ({CH2CO}-[Ala(morpholin-4-yl)][Bip(4'-COOH)][Bip(4'-NHAc)][Sar]HD[dR]IPIHLCG-NH2; thioether N-13)	–
–	CC(C)C[C@@H]1NC(=O)[C@H](Cc2c[nH]cn2)NC(=O)[C@H](C2CCCCC2)NC(=O)[C@@H]2CCCN2C(=O)[C@H](C(C)C)NC(=O)[C@@H](CCCNC(=N)N)NC(=O)[C@H](CC(=O)O)NC(=O)[C@H](Cc2cnc[nH]2)NC(=O)CN(C)C(=O)[C@H](Cc2ccc(-c3ccc(NC(=O)c4ccccc4)cc3)cc2)NC(=O)[C@H](Cc2ccc(-c3ccccc3)cc2)NC(=O)[C@H](CC2CCCCC2)NC(=O)CSC[C@@H](C(=O)NCC(N)=O)NC1=O [Example 513] ({CH2CO}-[Cha][Bip][Bip(4'-NHBz)][Sar]HD[dR]VP[Chg]HLCG-NH2; thioether N-13)	< 0.05 µM
